Measurements as given in US8796467B2, “Compounds” (Boehringer Ingelheim International GmbH, priority 2011, dated 2014).

Molecular target: T1, human recombinant mGluR5 (Homo sapiens, UniProt P41594)
T1 construct: expressed in transfected cells; hygromycin and geneticin selection, tetracycline-regulated
Test: Positive modulation of mGluR5, calcium based FLIPR assay in HEK 293 cell line
Conditions: EC50 of the modulation; HEK 293 cells expressing human recombinant mGluR5; glutamate at approximately 5% basal stimulation; peak height of Ca fluorescence signal
Description: The positive modulation of mGluR5 is measured in a HEK 293 cell line expressing human recombinant mGluR5 and is detected with calcium based FLIPR assay. The cells are cultured with DMEM supplemented with 10% FCS, 2 μg/mL tetracycline, 100 μg/mL hygromycin and 500 μg/mL gneticin. The cell culture media is exchanged for tetracycline-free cell culture media 3-7 days before the assay. One day before the assay the cell culture medium is exchanged to DMEM without glutamine and phenol red and supplemented with 10% FCS, 100 μg/mL hygromycin and 500 μg/mL geneticin. On the assay day, the medium of the subconfluent cultures is removed and the cells are detached by addition of 2.5 ml EDTA (0.02%) per 175 cm2 culture flask for 1 minute. The cells are resuspend in Ringer solution (140 mM NaCl, 5 mM KCl, 2.5 mM CaCl2, 1.5 mM MgCl2, 5 mM Glucose, 10 mM Hepes; adjusted to pH 7.4 with NaOH), pooled and Ringer solution added to adjust the volume to 50 mL. The cell suspension is centrifuged for 5 min at 1500 U/min (425 g). The supernatant is removed and the cells washed a second time with 50 ml fresh Ringer solution and centrifuged again as before. The supernatant is again removed and the pellet resuspended in Ringer solution to 1,000,000 cells/ml (1×10^6 cells/mL). The cells are plated onto BD BioCoat Poly-D-Lysine 384 well plates (20,000 cells/well; 20 μl/well). The lid covered plates are then incubated until use at 37° C./10% CO2. For dye loading, 20 μl of Calcium-4 assay kit solution (prepared according to the manufacturer's description in Ringer solution) are added to the cells and the plates are incubated for 80 min 37° C. and then 10 min at room temperature.
Controls, Compound Dilution and Assay Execution:
Each assay plate contained wells with “high” and “low” controls: • Low controls 1% DMSO/ringer solution+basal glutamate activation (defined as 100% CTL). • High controls 10 μM CDPPB+basal glutamate activation (defined as 200% CTL).
Test compounds are dissolved and diluted in DMSO to 100-fold the desired concentrations. In a second step, the compounds are diluted in Ringer solution such that the compounds are 4-fold more concentrated than the desired final assay concentration. The final DMSO concentration was 1%.
20 μl of each compound solution are then transferred to the assay plate and the Ca2+ kinetic is measured to determine any intrinsic compound activity. After 5 min incubation in the FLIPR device, the second stimulation with 20 μl of glutamate in Ringer solution (glutamate concentration adjusted to approximately 5% basal stimulation of the maximal possible glutamate effect) is added and the kinetic Ca2+ response of the wells was measured for the modulation effect.
The peak height of the Ca release related fluorescence signal (9-66) is used for the EC50.
The EC50 of the modulation is calculated over a nonlinear regression with GraphPad Prism (Table 1).

T1 sequence (P41594 21-1212): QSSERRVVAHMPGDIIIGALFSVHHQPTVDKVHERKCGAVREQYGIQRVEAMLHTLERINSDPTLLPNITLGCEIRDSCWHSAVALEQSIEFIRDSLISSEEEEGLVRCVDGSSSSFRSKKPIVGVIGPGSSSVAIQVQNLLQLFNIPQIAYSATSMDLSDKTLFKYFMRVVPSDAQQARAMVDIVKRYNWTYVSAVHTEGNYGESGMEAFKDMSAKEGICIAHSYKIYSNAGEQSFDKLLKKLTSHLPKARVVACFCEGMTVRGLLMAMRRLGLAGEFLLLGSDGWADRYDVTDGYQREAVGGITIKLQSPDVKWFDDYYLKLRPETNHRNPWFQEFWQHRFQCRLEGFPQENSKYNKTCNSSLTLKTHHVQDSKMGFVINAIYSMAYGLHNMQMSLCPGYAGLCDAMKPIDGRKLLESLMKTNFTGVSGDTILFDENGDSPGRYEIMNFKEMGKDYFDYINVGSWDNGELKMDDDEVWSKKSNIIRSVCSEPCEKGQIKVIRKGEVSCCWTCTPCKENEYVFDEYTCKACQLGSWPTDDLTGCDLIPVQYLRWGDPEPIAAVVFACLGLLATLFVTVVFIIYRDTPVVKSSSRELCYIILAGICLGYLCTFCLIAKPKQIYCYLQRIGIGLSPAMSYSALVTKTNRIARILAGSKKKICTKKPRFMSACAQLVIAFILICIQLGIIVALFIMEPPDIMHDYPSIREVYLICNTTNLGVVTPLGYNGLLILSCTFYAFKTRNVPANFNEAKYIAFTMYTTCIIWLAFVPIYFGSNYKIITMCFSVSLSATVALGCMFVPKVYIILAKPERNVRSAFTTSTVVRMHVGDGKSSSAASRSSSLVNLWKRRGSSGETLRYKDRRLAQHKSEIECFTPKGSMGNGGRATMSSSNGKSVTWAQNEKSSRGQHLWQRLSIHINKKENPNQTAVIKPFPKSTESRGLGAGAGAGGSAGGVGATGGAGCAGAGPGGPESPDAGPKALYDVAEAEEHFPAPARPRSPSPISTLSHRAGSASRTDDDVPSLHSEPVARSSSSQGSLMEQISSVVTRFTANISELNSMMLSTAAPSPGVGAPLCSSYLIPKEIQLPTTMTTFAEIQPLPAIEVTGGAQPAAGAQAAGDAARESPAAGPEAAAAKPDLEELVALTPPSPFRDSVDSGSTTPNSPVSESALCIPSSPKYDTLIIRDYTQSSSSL

Question: Which EC50 does the source give for `Cc1nc2c(s1)CCN(C(=O)Cn1cc(-c3ccc(F)c(C)c3)nc1C(C)C)CC2` [Example 7.01.10.] here?
Answer: The EC50 was 0.854 µM.

Question: Which EC50 does the source give for `Cc1cc(-c2cn(CC(=O)N3CCc4nc(N)sc4CC3)c(-c3ccccc3)n2)ccc1F` [Example 7.01.02.] here?
Answer: The EC50 was 0.224 µM.

Question: `Cc1cccc(-c2cn(CC(=O)N3CCc4nc(N)sc4CC3)c(-c3ccccc3)n2)c1` [Example 7.01.21.] was tested. Which EC50 did it give?
Answer: Its EC50 is 0.275 µM.

Question: `Nc1nc2c(s1)CCN(C(=O)Cn1cc(-c3ccc(F)cc3)nc1-c1ccc(F)cc1)CC2` [Example 7.01.18.] was tested. Which EC50 did it give?
Answer: Its EC50 is 0.448 µM.

Question: With `Cc1cc(-c2cn(CC(=O)N3CCc4nc(N)sc4CC3)c(C3CCCCC3)n2)ccc1F` [Example 7.01.05.] as the molecule, how does the EC50 read?
Answer: The EC50 was 0.623 µM.

Question: With `Cc1nc2c(o1)CN(C(=O)Cn1cc(-c3ccc(F)c(C)c3)nc1-c1ccccc1)CC2` [Example 7.01.03.] as the molecule, how does the EC50 read?
Answer: The EC50 was 0.09 µM.

Question: Which EC50 does the source give for `Cc1nc2c(o1)CN(C(=O)Cn1cc(-c3ccc(F)cc3)nc1-c1ccc(F)cc1)CC2` [Example 7.01.15.] here?
Answer: The EC50 was 0.297 µM.

Question: Which EC50 does the source give for `Cc1nc2c(s1)CCN(C(=O)Cn1cc(-c3ccc(F)c(C)c3)nc1C1CCCCC1)CC2` [Example 7.01.06.] here?
Answer: Its EC50 is 0.332 µM.

Question: `Cc1nc2c(s1)CN(C(=O)Cn1cc(-c3ccc(F)c(C)c3)nc1-c1ccc(F)cc1)C2` [Example 7.01.14.] was tested. Which EC50 did it give?
Answer: The EC50 was 0.064 µM.

Question: Which EC50 does the source give for `Cc1nc2c(s1)CN(C(=O)Cn1cc(-c3ccc(F)cc3)nc1-c1ccc(F)cc1)C2` [Example 7.01.16.] here?
Answer: The EC50 was 0.633 µM.

Question: For `Cc1nc2c(o1)CCN(C(=O)Cn1cc(-c3ccc(F)c(C)c3)nc1-c1ccccc1)CC2` [Example 7.01.29], which EC50 is on record?
Answer: The EC50 was 0.162 µM.

Question: For `Cc1cc(-c2cn(CC(=O)N3CCc4nc(N)sc4C3)c(-c3ccccc3)n2)ccc1F` [Example 7.01.27], which EC50 is on record?
Answer: The EC50 was 0.172 µM.

Question: `Cc1cccc(-c2cn(CC(=O)N3Cc4nc(C)sc4C3)c(-c3ccccc3)n2)c1` [Example 7.01.19.] was tested. Which EC50 did it give?
Answer: Its EC50 is 0.574 µM.

Question: How did the EC50 turn out when `Cc1nc2c(s1)CCN(C(=O)Cn1cc(-c3ccc(F)cc3)nc1-c1ccc(F)cc1)CC2` [Example 7.01.17.] was run?
Answer: The EC50 was 0.096 µM.

Question: `Cc1nc2c(o1)CN(C(=O)Cn1cc(-c3ccc(F)c(C)c3)nc1-c1ccc(F)cc1)CC2` [Example 7.01.13.] was tested. Which EC50 did it give?
Answer: The EC50 was 0.04 µM.

Question: `Cc1nc2c(s1)CN(C(=O)Cn1cc(-c3ccc(F)c(C)c3)nc1-c1ccccc1)CC2` [Example 7.01.31] was tested. Which EC50 did it give?
Answer: Its EC50 is 0.108 µM.

Question: `Cc1cc(-c2cn(CC(=O)N3CCN(c4cc(F)ccn4)C(=O)C3)c(-c3ccc(F)cc3)n2)ccc1F` [Example 7.01.25] was tested. Which EC50 did it give?
Answer: The EC50 was 0.042 µM.

Question: For `Cc1nc2c(s1)CCN(C(=O)Cn1cc(-c3ccc(F)cc3)nc1-c1ccccc1)CC2` [Example 7.01.09.], which EC50 is on record?
Answer: The EC50 was 0.259 µM.

Question: How did the EC50 turn out when `Cc1cc(-c2cn(CC(=O)N3CCN(c4ccccn4)C(=O)C3)c(-c3ccc(F)cc3)n2)ccc1F` [Example 7.01.26] was run?
Answer: The EC50 was 0.044 µM.

Question: `Cc1nc2c(s1)CCN(C(=O)Cn1cc(-c3ccc(F)c(C)c3)nc1-c1ccc(F)cc1)CC2` [Example 7.01.12.] was tested. Which EC50 did it give?
Answer: The EC50 was 0.078 µM.

Question: Which EC50 does the source give for `Cc1nc2c(o1)CN(C(=O)Cn1cc(-c3ccc(F)c(C)c3)nc1-c1ccccc1)C2` [Example 7.01.33] here?
Answer: Its EC50 is 0.127 µM.

Question: Which EC50 does the source give for `Cc1cc(-c2cn(CC(=O)N3CCc4nc(N)sc4CC3)c(-c3ccc(F)cc3)n2)ccc1F` [Example 7.01.11.] here?
Answer: The EC50 was 0.107 µM.

Question: Which EC50 does the source give for `Cc1nc2c(o1)CN(C(=O)Cn1cc(-c3ccc(F)c(C)c3)nc1-c1ccc(F)cc1)C2` [Example 7.01.34] here?
Answer: Its EC50 is 0.101 µM.

Question: `CC(=O)Nc1nc2c(s1)CCN(C(=O)Cn1cc(-c3ccc(F)c(C)c3)nc1-c1ccccc1)CC2` [Example 7.01.28] was tested. Which EC50 did it give?
Answer: The EC50 was 0.769 µM.

Question: `Cc1nc2c(o1)CN(C(=O)Cn1cc(-c3ccc(F)cc3)nc1-c1ccccc1)CC2` [Example 7.01.07.] was tested. Which EC50 did it give?
Answer: Its EC50 is 0.939 µM.

Question: Which EC50 does the source give for `Cc1cccc(-c2cn(CC(=O)N3CCc4nc(C)oc4C3)c(-c3ccccc3)n2)c1` [Example 7.01.22.] here?
Answer: The EC50 was 0.25 µM.

Question: How did the EC50 turn out when `Cc1cc(-c2cn(CC(=O)N3CCN(c4cccc(C#N)c4)C(=O)C3)c(-c3ccc(F)cc3)n2)ccc1F` [Example 7.01.23] was run?
Answer: Its EC50 is 0.431 µM.

Question: With `Cc1nc2c(o1)CCN(C(=O)Cn1cc(-c3ccc(F)c(C)c3)nc1-c1ccccc1)C2` [Example 7.01.32] as the molecule, how does the EC50 read?
Answer: Its EC50 is 0.061 µM.

Question: Which EC50 does the source give for `Cc1nc2c(s1)CCN(C(=O)Cn1cc(-c3ccc(F)c(C)c3)nc1-c1ccccc1)CC2` [Example 7.01.01., 2-(4-(4-fluoro-3-methyl-phenyl)-2-phenyl-imidazol-1-yl)-1-(2-methyl-4,5,7,8-tetrahydro-thiazolo[4,5-d]azepin-6-yl)-ethanone] here?
Answer: Its EC50 is 0.09 µM.

Question: Which EC50 does the source give for `Nc1nc2c(s1)CCN(C(=O)Cn1cc(-c3ccc(F)cc3)nc1-c1ccccc1)CC2` [Example 7.01.08.] here?
Answer: The EC50 was 0.738 µM.

Question: For `Cc1cc(-c2cn(CC(=O)N3CCc4ncsc4CC3)c(-c3ccccc3)n2)ccc1F` [Example 7.01.30], which EC50 is on record?
Answer: The EC50 was 0.15 µM.

Question: How did the EC50 turn out when `COc1cccc(N2CCN(C(=O)Cn3cc(-c4ccc(F)c(C)c4)nc3-c3ccc(F)cc3)CC2=O)c1` [Example 7.01.24] was run?
Answer: The EC50 was 0.09 µM.

Question: Which EC50 does the source give for `Cc1cccc(-c2cn(CC(=O)N3CCc4nc(C)sc4CC3)c(-c3ccccc3)n2)c1` [Example 7.01.20.] here?
Answer: The EC50 was 0.107 µM.

Question: Which EC50 does the source give for `Cc1nc2c(o1)CN(C(=O)Cn1cc(-c3ccc(F)c(C)c3)nc1C1CCCCC1)CC2` [Example 7.01.04.] here?
Answer: The EC50 was 0.885 µM.
